In one assay the test system is RCC4. Put plainly: XTT cell viability assay, RCC4. It counts as cell-based. The conditions noted are these: Homo sapiens, XTT assay (48 h), standard deviation of 10%, read-out: EC50 (μM) Kidney RCC4. The method, then: (§1) Fifty microliters of sodium 3′-[1-phenylaminocarbonyl)-3,4-tetrazolium]-bis(4-methoxy-6-nitro) benzene sulfonic acid hydrate (XTT) reagent was added to each well. The assay is based on the cleavage of the yellow tetrazolium salt XTT to form an orange formazan dye by metabolically active cells. The absorbance of the formazan product, reflecting cell viability, was measured at 490 nm. Each assay was performed in quadruplicate.
(§2) Compounds #1-#14 have been assayed as potential anti-proliferative agents against a panel of human breast head and neck, and kidney tumor cells and hematological malignancies, selected on the basis of their aggressiveness (e.g. incurable triple-negative breast cancer cells: MDA-MB-231; kidney ccRCC cells: RCC4, A498 and 786-O and 786R; head and neck cancer cells: CAL33, CAL33RR, CAL27, and CAL27RR; acute myeloid cell lines: OCI-AML2, OCI-AML3, MolM13, and MolM14; myelodysplastic cell line: SM1; and chronic myeloid cell line: CML). All these cell lines share as common denominator the expression of CXCR1 and CXCR2. The EC50 values have been measured by a XTT colorimetric assay, and compared to those of SB-225002, used as a reference; the results are listed in Table 1.
On the technique in general: Formazan colour is commonly taken as a measure of viable cells.

Another assay relates to SKM1. Put plainly: XTT cell viability assay, SKM1. It counts as cell-based, human. Conditions: Homo sapiens, SKM-1; XTT assay (48 h); standard deviation of 10%; read-out: EC50 (μM) MDS SKM1. The method, then:
as §1, §2

On to `O=C(Nc1cccc(Cl)c1)Nc1nc2ccc([N+](=O)[O-])cc2s1` [Compound #1, 1-(3-chlorophenyl)-3-(6-nitrobenzo[d]thiazol-2-yl)urea], for which the EC50 in the assay on RCC4 and in the assay with SKM1 was 5 µM each time.

By EC50 is commonly meant the concentration needed to bring the measured effect to its halfway point.

(Values after patent US20210380547A1, “UREA DERIVATIVES FOR TREATING AND/OR PREVENTING CANCER” (CENTRE NATIONAL DE LA RECHERCHE SCIENTIFIQUE, priority 2018, published 2021).)
